pIC50: −log10 of the molar value.
Molecular target: recombinant human CETP protein (Homo sapiens (Human), UniProt P11597)
Assay: Test of CETP inhibition activity (in vitro, buffer-based)
Format: biochemical
Details: reconstituted HDL with [14C]-labeled cholesteryl ester, acceptor lipoprotein, 37° C.
Description: Test of CETP Inhibition Activity (In Vitro, Buffer-Based)
(1) Preparation of Reconstituted HDL
Cholesterol (1.125 μmol), phosphatidyl choline (4.5 μmol) and [^14C]-labeled cholesteryl ester (2.0 μCi; 40 μl) were taken in a glass test tube and well mixed with a vortex, and dried under a nitrogen gas current so that it formed a thin film. The obtained mixture was dissolved in ethanol (200 μl), which was designated as Solution A. A PBS solution [a mixed solution of Na2HPO4 (30 mM), KH2PO4 (8.8 mM), NaCl (60 mM) and EDTA (pH 7.4; 0.67 mM); 4 ml] was taken in a tube and the reaction solution was vigorously stirred with a vortex under a nitrogen current. The above-described Solution A was gently injected into this mixture with a syringe and the reaction solution was vigorously stirred with a vortex for 5 minutes under a nitrogen current. Sodium cholate ([…]; 0.38 ml) was added to the obtained mixture and the reaction solution was stirred for 2 minutes. ApoA-I protein (3 mg) was added to the obtained mixture and the reaction solution was stirred for 2 minutes. The obtained mixture was adjusted to 5 ml with the PBS solution and then dialyzed with the PBS solution. The obtained mixture was designated as the reconstituted HDL.
(2) Preparation of Acceptor Lipoprotein
NaBr was added to the plasma of a healthy person and the density of the mixture was adjusted to 1.019, and the mixture was subjected to density gradient centrifugation (40000 rpm, for 16 hours) to remove the fraction having a density of less than 1.019. NaBr was added to the obtained mixture and the density of the solution was adjusted to 1.063, and the solution was subjected to density gradient centrifugation (40000 rpm, 18 hours) to provide the fraction consisting of IDL (intermediate density lipoprotein) and LDL (1.019<density<1.063). The obtained fraction was dialyzed with the PBS solution. The obtained mixture was designated as the acceptor lipoprotein.
(3) Measurement of CETP Inhibition Activity
A recombinant human CETP protein (manufactured by Roar Biomedical Inc.; 4.5 ng), the acceptor lipoprotein described in (2) above (32.5 μg) and 5,5′-dithio-bis-(2-nitrobenzoic acid) (7 mM, 15 μl) were taken in a 96 well plate and the total amount of the mixture was adjusted to 48.5 μl with the PBS solution. The test compound [DMSO solution (concentration: 0.15, 0.5, 1.5, 5, 15, 50, 150 and 500 μM; 1.5 μl] was added to each well and the mixture was incubated in a thermostatic bath at 37° C. for 60 minutes. The reconstituted HDL (50 μl) described in (1) above was added to each well and the mixture was reacted in a thermostatic bath at 37° C. for 60 minutes. The 96 well plate was moved onto ice and a precipitation reagent [a mixed solution of magnesium chloride (60 mM) and 0.1% dextran sulfate [1/1 (v/v)]; 15 μl] was added to each well, and then the mixture was allowed to stand on ice for 15 minutes. The reaction solution (80 μl) in each well was moved to a filter plate and centrifuged at 1500 rpm for 1 minute, and the filtrate which passed through the filter was designated as the HDL fraction and the radioactivity thereof was measured with a scintillation counter. The percentage decrease in radioactivity in the case where the test compound was added in comparison with that in case where the test compound was not added was designated as the percentage CETP inhibition. The IC50 value was calculated from the percentage CETP inhibition.

recombinant human CETP protein, sequence (P11597 18-493): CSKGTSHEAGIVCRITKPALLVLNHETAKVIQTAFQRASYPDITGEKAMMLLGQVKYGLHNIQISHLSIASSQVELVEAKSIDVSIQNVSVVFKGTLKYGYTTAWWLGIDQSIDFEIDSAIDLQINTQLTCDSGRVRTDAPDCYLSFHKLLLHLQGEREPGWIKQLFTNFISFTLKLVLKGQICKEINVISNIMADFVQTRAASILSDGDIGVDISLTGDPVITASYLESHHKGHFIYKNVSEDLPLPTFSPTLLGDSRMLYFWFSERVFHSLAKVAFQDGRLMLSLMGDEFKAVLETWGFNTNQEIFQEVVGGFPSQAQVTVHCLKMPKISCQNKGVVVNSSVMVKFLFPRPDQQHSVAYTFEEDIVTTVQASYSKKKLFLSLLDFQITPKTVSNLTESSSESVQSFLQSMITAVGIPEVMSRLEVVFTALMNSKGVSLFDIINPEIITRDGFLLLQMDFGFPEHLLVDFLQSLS

Structure (SMILES) | pIC50
CCCCCc1cnc(N2CCC(c3nc4c(c(C5CCC(F)(F)CC5)c3[C@@H](F)c3ccc(C(F)(F)F)cc3)[C@@H](O)CC(C)(C)C4)CC2)nc1 (single isomer, unassigned) [Example 16, (−)-4-(4,4-Difluorocyclohexyl)-3-{fluoro[4-(trifluoromethyl)phenyl]methyl}-7,7-dimethyl-2-[1-(5-pentylpyrimidin-2-yl)piperidin-4-yl]-5,6,7,8-tetrahydroquinolin-5-ol] | 6.61
CC(C)c1cnc(N2CCC(c3nc4c(c(C5CCC(F)(F)CC5)c3[C@@H](F)c3ccc(C(F)(F)F)cc3)[C@@H](O)CC(C)(C)C4)CC2)nc1 (single isomer, unassigned) [Example 12, 4-(4,4-Difluorocyclohexyl)-3-{fluoro[4-(trifluoromethyl)phenyl]methyl}-7,7-dimethyl-2-{1-[5-(propan-2-yl)pyrimidin-2-yl]piperidin-4-yl}-5,6,7,8-tetrahydroquinolin-5-ol] | 6.99
CC1(C)Cc2nc(C3CCN(c4ncc(CCCCC(=O)O)cn4)CC3)c([C@@H](F)c3ccc(C(F)(F)F)cc3)c(C3CCC(F)(F)CC3)c2[C@@H](O)C1 (single isomer, unassigned) [Example 25, (−)-2-{1-[5-(4-carboxybutyl)pyrimidine-2-yl]piperidin-4-yl}-4-(4,4-difluorocyclohexyl)-3-{fluoro[4-(trifluoromethyl)phenyl]methyl}-7,7-dimethyl-5,6,7,8-tetrahydroquinoline-5-ol] | 7.72
CC1(C)Cc2nc(C3CCN(c4ncc(OC[C@H](O)CO)cn4)CC3)c([C@@H](F)c3ccc(C(F)(F)F)cc3)c(C3CCC(F)(F)CC3)c2[C@@H](O)C1 (single isomer, unassigned) [Example 40] | 7.96
CC1(C)Cc2nc(C3CCN(c4ncc(OCCCO)cn4)CC3)c([C@@H](F)c3ccc(C(F)(F)F)cc3)c(C3CCC(F)(F)CC3)c2[C@@H](O)C1 [Example 46, (−)-4-(4,4-Difluorocyclohexyl)-3-{fluoro[4-(trifluoromethyl)phenyl]methyl}-2-{1-[5-(3-hydroxypropoxy)pyrimidin-2-yl]piperidin-4-yl}-7,7-dimethyl-5,6,7,8-tetrahydroquinolin-5-ol] | 7.80
C[C@@H](O)COc1cnc(N2CCC(c3nc4c(c(C5CCC(F)(F)CC5)c3[C@@H](F)c3ccc(C(F)(F)F)cc3)[C@@H](O)CC(C)(C)C4)CC2)nc1 (single isomer, unassigned) [Example 42] | 7.66
CN1CCN(c2cnc(N3CCC(c4nc5c(c(C6CCC(F)(F)CC6)c4[C@@H](F)c4ccc(C(F)(F)F)cc4)[C@@H](O)CC(C)(C)C5)CC3)nc2)CC1 (single isomer, unassigned) [Example 8, (−)-4-(4,4-Difluorocyclohexyl)-3-{fluoro[4-(trifluoromethyl)phenyl]methyl}-7,7-dimethyl-2-{1-[5-(4-methylpiperazin-1-yl)pyrimidin-2-yl]piperidin-4-yl}-5,6,7,8-tetrahydroquinolin-5-ol] | 7.72
CC1(C)Cc2nc(C3CCN(c4ncc(N5CCOCC5)cn4)CC3)c([C@@H](F)c3ccc(C(F)(F)F)cc3)c(C3CCC(F)(F)CC3)c2[C@@H](O)C1 (single isomer, unassigned) [Example 5, (−)-4-(4,4-Difluorocyclohexyl)-3-{fluoro[4-(trifluoromethyl)phenyl]methyl}-7,7-dimethyl-2-{1-[5-(morpholin-4-yl)pyrimidin-2-yl]piperidin-4-yl}-5,6,7,8-tetrahydroquinolin-5-ol] | 6.60
CN1CC[C@@H](Oc2cnc(N3CCC(c4nc5c(c(C6CCC(F)(F)CC6)c4C(F)c4ccc(C(F)(F)F)cc4)C(O)CC(C)(C)C5)CC3)nc2)C1 (single isomer, unassigned) [Example 41] | 7.80
COCc1cnc(N2CCC(c3nc4c(c(C5CCC(F)(F)CC5)c3[C@@H](F)c3ccc(C(F)(F)F)cc3)[C@@H](O)CC(C)(C)C4)CC2)nc1 (single isomer, unassigned) [Example 27, (−)-4-(4,4-Difluorocyclohexyl)-3-{fluoro[4-(trifluoromethyl)phenyl]methyl}-2-{1-[5-(methoxymethyl)pyrimidin-2-yl]piperidin-4-yl}-7,7-dimethyl-5,6,7,8-tetrahydroquinolin-5-ol] | 7.40
CC1(C)Cc2nc(C3CCN(c4ncc(OCCCS(C)(=O)=O)cn4)CC3)c([C@@H](F)c3ccc(C(F)(F)F)cc3)c(C3CCC(F)(F)CC3)c2[C@@H](O)C1 (single isomer, unassigned) [Example 45, (−)-4-(4,4-Difluorocyclohexyl)-3-{fluoro[4-(trifluoromethyl)phenyl]methyl}-7,7-dimethyl-2-(1-{5-[3-(methylsulphonyl)propoxy]pyrimidin-2-yl}piperidin-4-yl)-5,6,7,8-tetrahydroquinolin-5-ol] | 7.89
CN(C)C(=O)c1cnc(N2CCC(c3nc4c(c(C5CCC(F)(F)CC5)c3[C@@H](F)c3ccc(C(F)(F)F)cc3)[C@@H](O)CC(C)(C)C4)CC2)nc1 (single isomer, unassigned) [Example 31, (−)-4-(4,4-Difluorocyclohexyl)-2-{1-[5-(dimethylcarbamoyl)pyrimidin-2-yl]piperidin-4-yl}-3-{fluoro[4-(trifluoromethyl)phenyl]methyl}-7,7-dimethyl-5,6,7,8-tetrahydroquinolin-5-ol] | 7.54
CC1(C)Cc2nc(C3CCN(c4ncc(OCCC(F)(F)F)cn4)CC3)c([C@@H](F)c3ccc(C(F)(F)F)cc3)c(C3CCC(F)(F)CC3)c2[C@@H](O)C1 (single isomer, unassigned) [Example 47, (−)-4-(4,4-Difluorocyclohexyl)-3-{fluoro[4-(trifluoromethyl)phenyl]methyl}-7,7-dimethyl-2-{1-[5-(3,3,3-trifluoropropoxyl)pyrimidin-2-yl]piperidin-4-yl}-5,6,7,8-tetrahydroquinolin-5-ol] | 7.51
CC(C)COc1cnc(N2CCC(c3nc4c(c(C5CCC(F)(F)CC5)c3[C@@H](F)c3ccc(C(F)(F)F)cc3)[C@@H](O)CC(C)(C)C4)CC2)nc1 (single isomer, unassigned) [Example 21, (−)-4-(4,4-difluorocyclohexyl)-3-{fluoro[4-(trifluoromethyl)phenyl]methyl}-7,7-dimethyl-2-{1-[5-(2-methylpropoxy)pyrimidine-2-yl]piperidin-4-yl}-5,6,7,8-tetrahydroquinoline-5-ol] | 7.00
Cc1noc(-c2cnc(N3CCC(c4nc5c(c(C6CCC(F)(F)CC6)c4[C@@H](F)c4ccc(C(F)(F)F)cc4)[C@@H](O)CC(C)(C)C5)CC3)nc2)n1 (single isomer, unassigned) [Example 35, 4-(4,4-Difluorocyclohexyl)-3-{fluoro[4-(trifluoromethyl)phenyl]methyl}-7,7-dimethyl-2-{1-[5-(3-methyl-1,2,4-oxadiazol-5-yl)pyrimidin-2-yl]piperidin-4-yl}-5,6,7,8-tetrahydroquinolin-5-ol] | 7.06
CC(C)COCc1cnc(N2CCC(c3nc4c(c(C5CCC(F)(F)CC5)c3[C@@H](F)c3ccc(C(F)(F)F)cc3)[C@@H](O)CC(C)(C)C4)CC2)nc1 (single isomer, unassigned) [Example 29, (−)-4-(4,4-Difluorocyclohexyl)-3-{fluoro[4-(trifluoromethyl)phenyl]methyl}-7,7-dimethyl-2-(1-{5-[(2-methylpropoxy)methyl]pyrimidin-2-yl}piperidin-4-yl)-5,6,7,8-tetrahydroquinolin-5-ol] | 7.21
CC1(C)Cc2nc(C3CCN(c4ncc(-c5cccc(C(=O)O)c5)cn4)CC3)c([C@@H](F)c3ccc(C(F)(F)F)cc3)c(C3CCC(F)(F)CC3)c2[C@@H](O)C1 [Example 55, (−)-2-{1-[5-(3-Carboxyphenyl)pyrimidin-2-yl]piperidin-4-yl}-4-(4,4-difluorocyclohexyl)-3-{fluoro[4-(trifluoromethyl)phenyl]methyl}-7,7-dimethyl-5,6,7,8-tetrahydroquinolin-5-ol] | 7.23

Reference: US9187450B2, “Substituted pyridine compound” (Daiichi Sankyo Company, Limited, priority 2010, dated 2015)
